Measured values published in US20090054481A1 (priority 2003, published 2009).
Structures can show the parent of a compound that is named as a salt.

Tests used:
[1] = Dissolution rate of micronized drug substance (background statement); format: physicochemical; details: agglomerating drug substance
[2] = 25° C., cited from earlier work
[3] = cited from earlier work

CC(C)(C)NC(=O)[C@@H]1C[C@@H]2CCCC[C@@H]2CN1C[C@@H](O)[C@H](Cc1ccccc1)NC(=O)[C@H](CC(N)=O)NC(=O)c1ccc2ccccc2n1 [Micronized saquinavir mesylate, saquinavir mesylate]
dissolution rate (in words) [1]: slow dissolution rate

CC(C)(C)NC(=O)[C@@H]1C[C@@H]2CCCC[C@@H]2CN1C[C@@H](O)[C@H](Cc1ccccc1)NC(=O)[C@H](CC(N)=O)NC(=O)c1ccc2ccccc2n1 [Saquinavir mesylate]
solubility in simulated gastric fluid ([2]; simulated gastric fluid): 80 µg/mL
solubility in simulated intestinal fluid ([2]; simulated intestinal fluid): practically insoluble

CC(C)(C)NC(=O)[C@@H]1C[C@@H]2CCCC[C@@H]2CN1C[C@@H](O)[C@H](Cc1ccccc1)NC(=O)[C@H](CC(N)=O)NC(=O)c1ccc2ccccc2n1 [saquinavir]
Absolute bioavailability (average) ([3]; 8 healthy volunteers, single 600 mg dose (3×200 mg capsules) following a high fat breakfast, CV 73%): 4%
Absolute bioavailability (range) ([3]; 8 healthy volunteers, single 600 mg dose (3×200 mg capsules) following a high fat breakfast): 1-9%
24-hour AUC and Cmax after a higher calorie meal versus a lower calorie meal ([3]; n=6, on average): two times higher
